The record followed here is patent US20230019236A1, “PROTEIN TYROSINE PHOSPHATASE INHIBITORS AND METHODS OF USE THEREOF” (Calico Life Sciences LLC, priority 2019, published 2023).

Broadly, the IC50 is the concentration that gives 50% inhibition.

Assay [1] concerns the target T1, His tagged full-length PTP1B protein (Homo sapiens, UniProt P18031).
T1 construct: made in house
T1 sequence (P18031 with tags, fused parts or gaps): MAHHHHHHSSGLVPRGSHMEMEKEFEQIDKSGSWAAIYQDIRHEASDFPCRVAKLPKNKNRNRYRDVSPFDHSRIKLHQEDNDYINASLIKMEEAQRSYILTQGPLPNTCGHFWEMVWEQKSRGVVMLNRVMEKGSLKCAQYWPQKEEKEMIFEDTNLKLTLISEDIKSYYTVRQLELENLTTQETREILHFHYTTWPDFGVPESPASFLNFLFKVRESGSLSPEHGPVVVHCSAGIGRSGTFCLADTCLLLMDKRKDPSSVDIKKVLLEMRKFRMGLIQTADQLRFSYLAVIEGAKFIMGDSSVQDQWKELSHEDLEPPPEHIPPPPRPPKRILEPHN
The assay is described as follows: Mobility Shift Assay (MSA) used to determine potency of PTP1B inhibitors. Type of assay: biochemical. Particulars: Table 2. As to the method:
The enzymatic assay used to determine activity is a mobility shift assay using a LabChip EZ Reader by Caliper Life Sciences. The enzymatic reaction was carried out in assay buffer (50 mM HEPES pH 7.5, 1 mM EGTA, 10 mM EDTA, 0.01% Tween® 20, and 2 mM DTT). […] The enzyme (at 0.5 nM) was incubated with compound for 10 minutes at room temperature. […] The % inhibition was then used to calculate the IC50 values.

Assay [2] concerns B16F10 mouse melanoma cells. The assay is described as follows: B16F10 IFNγ-induced cellular growth inhibition assay. The format is cell-based. Particulars: Mus musculus, B16-F10, compound 33 μM, Table 3. How it is done: Example 294: B16F10 IFNγ-Induced Cellular Growth Inhibition Assay
B16F10 mouse melanoma cells (ATCC Cat# CRL-6475, Manassas, Va.) were seeded at a density of 500 cells per well in a 384-well clear bottom plate (Corning Cat#3765, Corning, N.Y.) in 25 μL total volume of DMEM+10% FBS (Sigma Cat# D6429 and Sigma Cat# F4135, St. Louis, MO). Cells were allowed to adhere overnight at 37° C. +5% CO2. On the following day, 12.5 μL of mouse IFNγ (RD systems Cat# 485-MI/CF, Minneapolis, Minn.) was added to half of the plate (columns 13-24) at a concentration of 2 ng/mL for a final assay concentration of 0.5 ng/mL of IFNγ. Media only (12.5 μL of DMEM+10% FBS) was added to the remainder of the plate (columns 1-12). Next, compounds resuspended in DMSO (Sigma Cat# D2650) at 100 mM were diluted in semi-log dilutions in DMSO ranging from 100 mM to 0.001 mM and DMSO only controls were included. The compound/DMSO dilutions were further diluted 1:250 in DMEM+10% FBS, and 12.5 μL of these dilutions were added in triplicates to cells of both treatment arms (with and without IFNγ). Final compound concentrations ranged from 100 μM to 0.001 μM with a final DMSO concentration of 0.1%. Compounds were only dosed in the inner 240 wells, avoiding the outer 2-well perimeter of the plate to minimize edge effects. Finally, the plate was loaded into an IncuCyte® S3 Live Cell Analysis System (Essen Bioscience-Sartorius, Ann Arbor, Mich.) maintained in a 37° C. +5% CO2 incubator, allowed to equilibrate for 2 hours, and imaged every 6 hours for 5 days. Confluence over time for compound dilutions in the presence and absence of IFNγ was measured. Growth inhibition values were obtained when the “DMSO/no IFNγ” control reached confluence >95%. At these time points, the percent growth inhibition of each compound at the indicated concentration was calculated relative to the “DMSO/with IFNγ” control.

Assay [3] deals with T2, His tagged PTPN2 (TC45) protein (Homo sapiens, UniProt P17706).
T2 construct: made in house
T2 sequence (P17706 with tags, fused parts or gaps isoform P17706-2): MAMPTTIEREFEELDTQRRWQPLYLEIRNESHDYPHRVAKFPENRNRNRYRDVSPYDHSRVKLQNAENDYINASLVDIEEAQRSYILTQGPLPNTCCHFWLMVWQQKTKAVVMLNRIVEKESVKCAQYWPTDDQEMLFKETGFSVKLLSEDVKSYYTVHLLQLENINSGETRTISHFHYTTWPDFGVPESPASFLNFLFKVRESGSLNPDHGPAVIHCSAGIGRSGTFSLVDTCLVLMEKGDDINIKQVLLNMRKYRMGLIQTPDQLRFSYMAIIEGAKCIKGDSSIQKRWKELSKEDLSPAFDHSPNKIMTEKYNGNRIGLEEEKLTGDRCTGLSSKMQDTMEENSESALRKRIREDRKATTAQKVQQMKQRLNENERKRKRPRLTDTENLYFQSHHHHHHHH
The assay is described as follows: Mobility Shift Assay used to determine potency of PTPN2 inhibitors. The format is biochemical. Particulars: Table 2; read-out: PTPN2 MSA IC50. Put shortly:
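His-tagged human PTPN2 (TC45), 0.5 nM, preincubated 10 min RT with compound (12-point, 1:3 dilution) in HEPES pH 7.5 buffer with EDTA/DTT; 2 µM OG488-labelled phospho-insulin-receptor peptide added, 10 min RT, then quenched. Dephosphorylation read by microfluidic mobility shift (ex 488/em 530 nm); IC50 from % inhibition.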

The mark [4] stands for this setting: +0.5 ng/mL IFNγ, relative to DMSO/with IFNγ control, read-out: % B16F10 growth inhibition (+0.5 ng/mL IFNγ) @ 33 μM.
[5] abbreviates: no IFNγ, read-out: % B16F10 growth inhibition (no IFNγ) @ 33 μM.

Where two headings read alike, the source gives them in different places.

`CC(C)NC(=O)Oc1ccc2cc(O)c(N3CC(=O)NS3(=O)=O)c(F)c2c1` [Compound 103, 8-fluoro-6-hydroxy-7-(1,1,4-trioxo-1λ^6,2,5-thiadiazolidin-2-yl)naphthalen-2-yl propan-2-ylcarbamate]: in assay [1], the IC50 was 10 to 100 nM. For the same molecule, the inhibition at 33 µM in assay [2] (setting [4]) was 60 to 90%; in assay [2] (setting [5]), less than 25%.
Consider `CC(C)(O)CCCc1ccc2cc(O)c(N3CC(=O)NS3(=O)=O)c(F)c2c1` [Compound 154, 5-[1-fluoro-3-hydroxy-7-(4-hydroxy-4-methylpentyl)naphthalen-2-yl]-1λ^6,2,5-thiadiazolidine-1,1,3-trione], for which the values for the IC50 in assay [3] and in assay [1] were less than 1 nM and 1 to 10 nM, respectively. Also, the values for the inhibition at 33 µM in assay [2] (setting [4]) and in assay [2] (setting [5]) were 60 to 90% and less than 25%, respectively.
Consider `CP(C)(=O)N1CC=C(c2ccc3cc(O)c(N4CC(=O)NS4(=O)=O)c(F)c3c2)C1` [Compound 168, 5-{7-[1-(dimethylphosphoryl)-2,5-dihydro-1H-pyrrol-3-yl]-1-fluoro-3-hydroxynaphthalen-2-yl}-1λ^6,2,5-thiadiazolidine-1,1,3-trione], for which the IC50 in assay [1] lay within 1 to 10 nM. The inhibition at 33 µM in assay [2] (setting [4]) was greater than 90%; in assay [2] (setting [5]), less than 25%.
Consider `CC(C)(O)CCOc1cc2c(F)c(N3CC(=O)NS3(=O)=O)c(O)cc2cc1O` [Compound 355, 5-[1-fluoro-3,6-dihydroxy-7-(3-hydroxy-3-methylbutoxy)naphthalen-2-yl]-1λ^6,2,5-thiadiazolidine-1,1,3-trione], for which the IC50 in assay [3] and in assay [1] was less than 1 nM in each case.
As to `O=C1CN(c2c(O)cc3cc(O)c(OCCC4CC4)cc3c2F)S(=O)(=O)N1` [Compound 356, 5-[7-(2-cyclopropylethoxy)-1-fluoro-3,6-dihydroxynaphthalen-2-yl]-1λ^6,2,5-thiadiazolidine-1,1,3-trione], the half-maximal inhibitory concentration (IC50) in assay [3] and in assay [1] was less than 1 nM in each case.
Take `COc1cc2c(F)c(N3CC(=O)NS3(=O)=O)c(O)cc2cc1O` [Compound 357, 5-(1-fluoro-3,6-dihydroxy-7-methoxynaphthalen-2-yl)-1λ^6,2,5-thiadiazolidine-1,1,3-trione]: the IC50 in assay [3] and in assay [1] was 1 to 10 nM throughout.
On to `CCc1cc2c(F)c(N3CC(=O)NS3(=O)=O)c(O)cc2cc1O` [Compound 358, 5-(7-ethyl-1-fluoro-3,6-dihydroxynaphthalen-2-yl)-1λ^6,2,5-thiadiazolidine-1,1,3-trione], for which the IC50 in assay [3] and in assay [1] was 1 to 10 nM throughout.
As for `CC(C)(C)CCOc1cc2c(F)c(N3CC(=O)NS3(=O)=O)c(O)cc2cc1O` [Compound 359, 5-[7-(3,3-dimethylbutoxy)-1-fluoro-3,6-dihydroxynaphthalen-2-yl]-1λ^6,2,5-thiadiazolidine-1,1,3-trione], the IC50 in assay [3] and in assay [1] was less than 1 nM in each case.
In the case of `O=C1CN(c2c(O)cc3cc(O)c(OCCC4CCCO4)cc3c2F)S(=O)(=O)N1` (stereo not drawn) [Compound 360, 5-{1-fluoro-3,6-dihydroxy-7-[2-(oxolan-2-yl)ethoxy]naphthalen-2-yl}-1λ^6,2,5-thiadiazolidine-1,1,3-trione], the half-inhibitory concentration (IC50) in assay [3] and in assay [1] was less than 1 nM throughout.
As to `CC(C)CCOc1cc2c(F)c(N3CC(=O)NS3(=O)=O)c(O)cc2cc1O` [Compound 361, 5-[1-fluoro-3,6-dihydroxy-7-(3-methylbutoxy)naphthalen-2-yl]-1λ^6,2,5-thiadiazolidine-1,1,3-trione], the IC50 in assay [3] and in assay [1] was less than 1 nM throughout.
As to `O=C1CN(c2c(O)cc3cc(O)c(OCCC4CCC4)cc3c2F)S(=O)(=O)N1` [Compound 362, 5-[7-(2-cyclobutylethoxy)-1-fluoro-3,6-dihydroxynaphthalen-2-yl]-1λ^6,2,5-thiadiazolidine-1,1,3-trione], the IC50 in assay [3] and in assay [1] was less than 1 nM each time.
As for `CCCCOc1cc2c(F)c(N3CC(=O)NS3(=O)=O)c(O)cc2cc1O` [Compound 363, 5-(7-butoxy-1-fluoro-3,6-dihydroxynaphthalen-2-yl)-1λ^6,2,5-thiadiazolidine-1,1,3-trione], the IC50 in assay [3] and in assay [1] was less than 1 nM each time.
`O=C1CN(c2c(O)cc3cc(O)c(OCCC4CCCC4)cc3c2F)S(=O)(=O)N1` [Compound 364, 5-[7-(2-cyclopentylethoxy)-1-fluoro-3,6-dihydroxynaphthalen-2-yl]-1λ^6,2,5-thiadiazolidine-1,1,3-trione]: the 50% inhibitory concentration (IC50) in assay [3] and in assay [1] was less than 1 nM throughout.
For the molecule `O=C1CN(c2c(O)cc3cc(O)c(OCCCC(F)F)cc3c2F)S(=O)(=O)N1` [Compound 365, 5-[7-(4,4-difluorobutoxy)-1-fluoro-3,6-dihydroxynaphthalen-2-yl]-1λ^6,2,5-thiadiazolidine-1,1,3-trione], the half-maximal inhibitory concentration (IC50) in assay [3] and in assay [1] was less than 1 nM in each case.
For `CC(C)(C#N)CCOc1cc2c(F)c(N3CC(=O)NS3(=O)=O)c(O)cc2cc1O` [Compound 366, 4-{[8-fluoro-3,6-dihydroxy-7-(1,1,4-trioxo-1λ^6,2,5-thiadiazolidin-2-yl)naphthalen-2-yl]oxy}-2,2-dimethylbutanenitrile], the IC50 in assay [3] and in assay [1] was less than 1 nM each time.
Regarding `O=C1CN(c2c(O)cc3cc(O)c(OCCC4CCOC4)cc3c2F)S(=O)(=O)N1` (stereo not drawn) [Compound 367, 5-{1-fluoro-3,6-dihydroxy-7-[2-(oxolan-3-yl)ethoxy]naphthalen-2-yl}-1λ^6,2,5-thiadiazolidine-1,1,3-trione], the IC50 in assay [3] and in assay [1] was less than 1 nM throughout.
As for `COCCCOc1cc2c(F)c(N3CC(=O)NS3(=O)=O)c(O)cc2cc1O` [Compound 368, 5-[1-fluoro-3,6-dihydroxy-7-(3-methoxypropoxy)naphthalen-2-yl]-1λ^6,2,5-thiadiazolidine-1,1,3-trione], the IC50 in assay [3] and in assay [1] was less than 1 nM in each case.
Regarding `O=C1CN(c2c(O)cc3ccc(C4=CCN(S(=O)(=O)CCCO)C4)cc3c2F)S(=O)(=O)N1` [Compound 369, 5-{1-fluoro-3-hydroxy-7-[1-(3-hydroxypropane-1-sulfonyl)-2,5-dihydro-1H-pyrrol-3-yl]naphthalen-2-yl}-1λ^6,2,5-thiadiazolidine-1,1,3-trione], the IC50 in assay [3] and in assay [1] was less than 1 nM in each case.
As for `O=C1CN(c2c(O)cc3cc(O)c(Br)cc3c2F)S(=O)(=O)N1` [Compound 370, 5-(7-bromo-1-fluoro-3,6-dihydroxynaphthalen-2-yl)-1λ^6,2,5-thiadiazolidine-1,1,3-trione], the IC50 in assay [3] and in assay [1] was 1 to 10 nM each time.
